In patent US11312690B2, “Compounds, compositions, methods for treating diseases, and methods for preparing compounds” (UNIVERSITY OF LOUISVILLE RESEARCH FOUNDATION, INC., priority 2015, dated 2022):

Each compound was assayed on MiaPaCa-2 (assay: Soft agar colony formation). Details: 10 μM; Table 2 experiment, DMSO control 182 ± 7 colonies.
Assay type: cell-based, human
Set-up: Colonies in agar: unit not given here
Experimental: FIG. 1. Effects of some compounds of Formula (I) on RalGEF inhibitor on soft agar growth and normal growth in 2D of pancreatic carcinoma cell lines. In FIGS. 1A and 1B, Panc-1 (ATCC® CRL-1469™) and MiaPaCa-2 (ATCC® CRL-1420™) mutant Ras containing pancreatic tumor cell lines were plated in soft agar in the presence of 10 μM or 0.9 μM of compound I-1 and scored for the formation of colonies. In FIGS. 1C and 1D, compound I-1 was then tested for the ability to inhibit cell growth on the same cell lines under normal 2D growth conditions on plastic. “0” is the carrier. Cells were seeded at the same density and scored after two weeks in culture.
Human pancreatic tumor cell lines MiaPaca-2 and Panc-1 contain activated K-Ras and were used in the initial screen to identify compound I-1. Soft agar colony formation remains an established in vitro assay to predict tumorigenicity and was used to predict tumorigenicity for compound I-1.
Several other compounds were tested against the Mia Paca-2 cell line using the soft agar colony formation in vitro assay in two experiments. For each table, DMSO was used as a control and, as such, within each table, the DMSO colonies are the measure against which each measurement in the corresponding table is compared.

Compound | Colonies in agar
COc1cccc(CNc2nc(CN(C)Cc3cccc(OC)c3)nc3c2c(C)c(C)[s+]3[O-])c1 (stereo not shown) [Compound I-33] | 186 ± 4
COc1cccc(CN(C)Cc2nc(NCc3cccc(Cl)c3)c3c(C)c(C)sc3n2)c1 [Compound I-27] | 51 ± 9
COc1cccc(CN(C)Cc2nc(NC(C)c3ccccc3)c3c(C)c(C)sc3n2)c1 (stereo not shown) [Compound I-26] | 0 ± 0
CCc1cc2c(NCc3cccc(OC)c3)nc(CN(C)Cc3cccc(OC)c3)nc2s1 [Compound I-31] | 14 ± 1
COc1cccc(CNc2nc(CN(C)Cc3cccc(OC)c3)nc3sccc23)c1 [Compound I-32] | 36 ± 1
COc1cccc(CNc2nc(CN(C)Cc3cccc(C)c3)nc3sc(C)c(C)c23)c1 [Compound I-29] | 0 ± 0
COc1cccc(CNc2nc(CN(C)Cc3cccc(OC)c3)nc3scc(C)c23)c1 [Compound I-30] | 14 ± 2
COc1cccc(CN(C)Cc2nc(NCc3cccc(F)c3)c3c(C)c(C)sc3n2)c1 [Compound I-28] | 54 ± 5

Same assay, conditions: 10 μM; Table 3 experiment, DMSO control 1686 ± 114 colonies

Compound | Colonies in agar
COc1cccc(CNc2nc(CN(C)Cc3cccc(OC)c3)nc3sc4c(c23)CCC4)c1 [Compound I-45] | 361 ± 49
COc1cccc(CN(C)Cc2nc(NCc3ccccc3OC)c3c(C)c(C)sc3n2)c1 [Compound I-43] | 272 ± 40
COc1cccc(CNc2nc(CN(C)Cc3ccccc3)nc3sc(C)c(C)c23)c1 [Compound I-54] | 410 ± 31
COc1cccc(CN(C)Cc2nc(NCc3ccccc3)c3c(C)c(C)sc3n2)c1 [Compound I-46] | 320 ± 22

The compounds below were run against T1, interaction of K-Ras with RGL2 (Homo sapiens, UniProt O15211) (assay: Ras/RalGEF binding, immunoprecipitation and immunoblot from co-transfected HEK-293 cells). Details: 10 μM, HA K-Ras 12v and GFP-RGL2, IP/IB, FIG. 3B.
T1 construct: expressed in transfected cells; host or cells: HEK-293
T1 sequence (O15211 1-777): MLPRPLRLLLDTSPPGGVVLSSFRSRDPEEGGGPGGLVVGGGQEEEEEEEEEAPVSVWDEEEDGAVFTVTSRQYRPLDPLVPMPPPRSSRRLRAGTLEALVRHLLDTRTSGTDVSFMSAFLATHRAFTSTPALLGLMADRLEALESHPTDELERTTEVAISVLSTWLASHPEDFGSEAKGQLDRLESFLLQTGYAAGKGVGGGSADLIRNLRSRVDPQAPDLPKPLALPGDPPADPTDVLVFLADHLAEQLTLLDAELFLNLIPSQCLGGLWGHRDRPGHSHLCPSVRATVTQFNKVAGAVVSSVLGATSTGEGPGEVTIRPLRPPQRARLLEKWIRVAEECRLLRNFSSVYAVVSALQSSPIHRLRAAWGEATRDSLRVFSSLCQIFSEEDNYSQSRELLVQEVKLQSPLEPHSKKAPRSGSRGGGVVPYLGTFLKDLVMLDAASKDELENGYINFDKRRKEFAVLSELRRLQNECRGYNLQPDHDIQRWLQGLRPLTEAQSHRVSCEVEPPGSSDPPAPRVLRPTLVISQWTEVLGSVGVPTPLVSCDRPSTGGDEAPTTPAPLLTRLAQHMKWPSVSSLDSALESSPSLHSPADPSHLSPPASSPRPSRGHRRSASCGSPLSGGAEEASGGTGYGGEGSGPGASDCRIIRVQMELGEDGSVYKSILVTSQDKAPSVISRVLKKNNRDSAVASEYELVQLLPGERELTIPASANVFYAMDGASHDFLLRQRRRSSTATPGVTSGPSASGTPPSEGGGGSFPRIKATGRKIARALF

inhibition of RGL2 (Ras/RGL2 interaction) | Compound
found to inhibit RGL2 | COc1cccc(CNc2nc(CN(C)Cc3cccc(OC)c3)nc3ccccc23)c1 [Compound I-2, N-(3-Methoxybenzyl)-2-(((3-methoxybenzyl)(methyl)amino)methyl)quinazolin-4-amine]
